According to article PMC9785169, “New Insights Regarding Hemin Inhibition of the Purified Rat Brain 2-Oxoglutarate Carrier and Relationships with Mitochondrial Dysfunction” (Journal of Clinical Medicine, 2022):

Target: T1, 2-oxoglutarate/malate carrier (OGC) (Rattus norvegicus, UniProt P97700)
T1 construct: gene Slc25a11; OGC purified from rat brain mitochondria, reconstituted into proteoliposomes
T1 sequence (P97700 2-314): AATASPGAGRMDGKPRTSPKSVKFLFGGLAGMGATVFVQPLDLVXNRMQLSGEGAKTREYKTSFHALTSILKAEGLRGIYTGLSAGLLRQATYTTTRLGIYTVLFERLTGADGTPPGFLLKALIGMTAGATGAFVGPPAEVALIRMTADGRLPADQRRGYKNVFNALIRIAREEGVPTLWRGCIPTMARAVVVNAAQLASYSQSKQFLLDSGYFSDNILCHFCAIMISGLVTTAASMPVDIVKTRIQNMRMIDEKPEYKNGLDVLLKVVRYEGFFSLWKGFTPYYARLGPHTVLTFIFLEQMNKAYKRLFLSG
Test: […]malate uptake inhibition in proteoliposomes reconstituted with purified OGC, internal hemin
Assay type: biochemical

C=CC1=C(C)C2=Cc3c(C=C)c(C)c4[n]3[Fe]([Cl])[n]3c(c(C)c(CCC(=O)O)c3=CC3=NC(=C4)C(C)=C3CCC(=O)O)=CC1=N2 [hemin]
IC50: 82 ± 7 nM
